Among the data in ChEMBL document CHEMBL6083249, “The journey of p38 MAP kinase inhibitors: From bench to bedside in treating inflammatory diseases” (Eur J Med Chem, 2024) are IC50, bioavailability and AUC values, retold here.

Data set [1] has as its target Mitogen-activated protein kinase 3 (Homo sapiens, UniProt P27361). Kind of data set: Inhibition of ERK1 (unknown origin).
Data set [2] addresses Mitogen-activated protein kinase kinase kinase 7 (Homo sapiens, UniProt O43318). Briefly: Inhibition of TAK1 (unknown origin).
Data set [3] can be described thus: Oral bioavailability in rat at 2 mg/kg by LC-MS/MS analysis. The format is ADME, organism-based. The following applies: in vivo.
Data set [4] is described as follows: Oral bioavailability in ICR mouse at […] by LC-MS/MS analysis. The format is ADME, organism-based. The following applies: in vivo, dose 0.25 mg/kg.
Data set [5] is described as follows: AUC in rat at 30 mg/kg, po. The format is ADME, organism-based. The following applies: in vivo.

Chain of Mitogen-activated protein kinase kinase kinase 7 (O43318 whole entry): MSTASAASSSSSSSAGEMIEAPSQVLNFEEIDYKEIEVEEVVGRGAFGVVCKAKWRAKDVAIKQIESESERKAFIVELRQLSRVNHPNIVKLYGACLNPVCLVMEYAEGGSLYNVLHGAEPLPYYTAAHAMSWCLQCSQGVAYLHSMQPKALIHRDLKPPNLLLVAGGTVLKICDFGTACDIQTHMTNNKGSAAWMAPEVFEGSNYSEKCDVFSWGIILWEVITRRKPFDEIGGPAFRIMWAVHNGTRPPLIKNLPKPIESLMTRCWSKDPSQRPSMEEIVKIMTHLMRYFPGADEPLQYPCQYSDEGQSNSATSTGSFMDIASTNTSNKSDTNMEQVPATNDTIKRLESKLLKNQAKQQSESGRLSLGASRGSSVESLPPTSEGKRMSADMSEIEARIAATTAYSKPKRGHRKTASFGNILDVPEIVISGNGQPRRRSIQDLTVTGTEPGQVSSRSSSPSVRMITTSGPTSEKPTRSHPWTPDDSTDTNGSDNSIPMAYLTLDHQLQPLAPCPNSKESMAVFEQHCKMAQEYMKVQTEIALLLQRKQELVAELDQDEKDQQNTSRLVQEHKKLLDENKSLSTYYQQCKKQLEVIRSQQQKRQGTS
Chain of Mitogen-activated protein kinase 3 (P27361 whole entry): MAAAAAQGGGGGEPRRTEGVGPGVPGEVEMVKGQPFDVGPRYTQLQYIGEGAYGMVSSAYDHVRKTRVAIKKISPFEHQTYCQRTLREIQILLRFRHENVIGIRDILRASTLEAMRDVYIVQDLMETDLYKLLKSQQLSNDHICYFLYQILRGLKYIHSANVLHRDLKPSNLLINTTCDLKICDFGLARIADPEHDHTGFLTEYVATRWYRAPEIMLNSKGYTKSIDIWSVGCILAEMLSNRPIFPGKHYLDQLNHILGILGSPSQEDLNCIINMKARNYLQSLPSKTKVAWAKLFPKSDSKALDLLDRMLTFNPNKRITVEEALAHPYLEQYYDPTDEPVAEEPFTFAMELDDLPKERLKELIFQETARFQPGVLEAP

As usually defined, the IC50 is the concentration needed to halve the response being measured. The low end stands for greater potency in that assay, the high end for weaker potency in that assay. One may read the bioavailability as dose-corrected exposure relative to a reference, in per cent. In the case of `CCc1nc(-c2cccc(C)c2)c(-c2ccnc(NC(=O)c3ccccc3)c2)s1` [TAK-715], the IC50 in data set [1] and in data set [2] was > 10 µM throughout. The molecule further yielded a bioavailability in data set [3] of 21.1%.

For orientation: AUC means the area under the concentration-time curve, a measure of exposure. On to `Cc1c(F)cc(C(=O)NC2CC2)cc1-c1ccc(C(=O)NCC(C)(C)C)cn1` [LOSMAPIMOD], for which, in data set [4], the bioavailability was determined as 51%. The AUC in data set [5] is 220 ng·h/mL.
